pIC50: −log10 of the molar value.
Legend:
[1] = target: T1, EGFR (aa668-1210, Invitrogen) (Homo sapiens, UniProt P00533); assay: Biochemical EGFR inhibition assay (TR-FRET), wild-type EGFR; settings: ATP at Km, 15 min pre-incubation, 60 min reaction; read-out: WT (Km ATP) IC50
T1 construct: EGFR (aa668-1210, Invitrogen); purchased Invitrogen
Procedure: (§1) Compounds were tested for inhibition of kinase activity against EGFR (aa668-1210, Invitrogen), EGFR(L858R_T790M_C797S) (aa695-end, Invitrogen) and EGFR(Dell9_T790M_C797S) (aa 669-1210, in house) in assays based on time-resolved fluorescence-resonance energy transfer (TR-FRET) methodology. Recombinant EGFR, EGFR(L858R_T790M_C797S) or EGFR(Dell9_T790M_C797S) was pre-incubated with the compounds at room temperature for 15 minutes in an assay buffer containing 50 mM HEPES pH7.5, 10 mM MgCl2, 2 mM DTT, 1 mM EGTA, 0.1% BSA, 0.01% Tween-20. The reactions were initiated by the addition of ATP (at the concentration of ATP Km) and substrate Biotin-Poly GT. After reaction at room temperature for 60 minutes, stop/detection solution was added. The stop/detection solution contained Eu^3+ cryptate-conjugated mouse monoclonal antibody (PT66) anti-phosphotyrosine and XL665-conjugated streptavidin in buffer containing 50 mM HEPES pH7.0, 800 mM KF, 20 mM EDTA, and 0.1% BSA. Plates were sealed and incubated at room temperature for 1 hour, and the TR-FRET signals (ratio of fluorescence emission at 665 nm over emission at 620 nm with excitation at 337 nm wavelength) were recorded on a PHERAstar FS plate reader (BMG Labtech). The residual enzyme activity in presence of increasing concentrations of compounds was calculated based on the ratio of fluorescence at 665 nm to that at 620 nm. The IC50 for each compound was derived from fitting the data to the four-parameter logistic equation by Dotmatics or Graphpad Prism software.
(§2) These biochemical EGFR enzyme form compound dose-response assays quantify the kinase activity via phosphorylation of a tagged poly-GT substrate. The results of the assay are provided as IC50 values.

[2] = target: T2, EGFR(L858R_T790M_C797S) (aa695-end, Invitrogen) (Homo sapiens, UniProt P00533, C797S/L858R/T790M); assay: Biochemical EGFR inhibition assay (TR-FRET), L858R/T790M/C797S mutant; settings: ATP at Km, 15 min pre-incubation, 60 min reaction; read-out: LR_TM_CS (Km ATP) IC50
T2 construct: purchased Invitrogen
T2 sequence (P00533 695-1210 T790M/C797S/L858R): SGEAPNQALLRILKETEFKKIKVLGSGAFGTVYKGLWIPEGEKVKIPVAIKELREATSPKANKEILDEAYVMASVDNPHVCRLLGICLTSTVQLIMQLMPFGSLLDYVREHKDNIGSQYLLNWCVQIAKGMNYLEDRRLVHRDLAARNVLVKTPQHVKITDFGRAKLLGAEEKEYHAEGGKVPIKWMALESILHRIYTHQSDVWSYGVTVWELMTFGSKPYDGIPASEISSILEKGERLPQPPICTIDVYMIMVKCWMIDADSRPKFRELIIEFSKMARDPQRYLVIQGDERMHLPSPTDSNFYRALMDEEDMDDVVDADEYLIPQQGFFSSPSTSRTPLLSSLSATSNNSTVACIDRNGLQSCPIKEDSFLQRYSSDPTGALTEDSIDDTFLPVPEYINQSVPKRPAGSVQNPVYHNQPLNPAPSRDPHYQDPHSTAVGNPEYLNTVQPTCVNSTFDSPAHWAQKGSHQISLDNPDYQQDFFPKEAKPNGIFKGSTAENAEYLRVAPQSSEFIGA
Procedure: as §1, §2

[3] = target: EGFR(Dell9_T790M_C797S) (aa 669-1210, in house) (Homo sapiens, UniProt P00533, T790M/C797S, form not given); assay: Biochemical EGFR inhibition assay (TR-FRET), Del19/T790M/C797S mutant; settings: ATP at Km, 15 min pre-incubation, 60 min reaction; read-out: Del_TM_CS (Km ATP) IC50
EGFR(Dell9_T790M_C797S) (aa 669-1210, in house), sequence (P00533 with tags, fused parts or gaps DEL746-750/T790M/C797S, form open): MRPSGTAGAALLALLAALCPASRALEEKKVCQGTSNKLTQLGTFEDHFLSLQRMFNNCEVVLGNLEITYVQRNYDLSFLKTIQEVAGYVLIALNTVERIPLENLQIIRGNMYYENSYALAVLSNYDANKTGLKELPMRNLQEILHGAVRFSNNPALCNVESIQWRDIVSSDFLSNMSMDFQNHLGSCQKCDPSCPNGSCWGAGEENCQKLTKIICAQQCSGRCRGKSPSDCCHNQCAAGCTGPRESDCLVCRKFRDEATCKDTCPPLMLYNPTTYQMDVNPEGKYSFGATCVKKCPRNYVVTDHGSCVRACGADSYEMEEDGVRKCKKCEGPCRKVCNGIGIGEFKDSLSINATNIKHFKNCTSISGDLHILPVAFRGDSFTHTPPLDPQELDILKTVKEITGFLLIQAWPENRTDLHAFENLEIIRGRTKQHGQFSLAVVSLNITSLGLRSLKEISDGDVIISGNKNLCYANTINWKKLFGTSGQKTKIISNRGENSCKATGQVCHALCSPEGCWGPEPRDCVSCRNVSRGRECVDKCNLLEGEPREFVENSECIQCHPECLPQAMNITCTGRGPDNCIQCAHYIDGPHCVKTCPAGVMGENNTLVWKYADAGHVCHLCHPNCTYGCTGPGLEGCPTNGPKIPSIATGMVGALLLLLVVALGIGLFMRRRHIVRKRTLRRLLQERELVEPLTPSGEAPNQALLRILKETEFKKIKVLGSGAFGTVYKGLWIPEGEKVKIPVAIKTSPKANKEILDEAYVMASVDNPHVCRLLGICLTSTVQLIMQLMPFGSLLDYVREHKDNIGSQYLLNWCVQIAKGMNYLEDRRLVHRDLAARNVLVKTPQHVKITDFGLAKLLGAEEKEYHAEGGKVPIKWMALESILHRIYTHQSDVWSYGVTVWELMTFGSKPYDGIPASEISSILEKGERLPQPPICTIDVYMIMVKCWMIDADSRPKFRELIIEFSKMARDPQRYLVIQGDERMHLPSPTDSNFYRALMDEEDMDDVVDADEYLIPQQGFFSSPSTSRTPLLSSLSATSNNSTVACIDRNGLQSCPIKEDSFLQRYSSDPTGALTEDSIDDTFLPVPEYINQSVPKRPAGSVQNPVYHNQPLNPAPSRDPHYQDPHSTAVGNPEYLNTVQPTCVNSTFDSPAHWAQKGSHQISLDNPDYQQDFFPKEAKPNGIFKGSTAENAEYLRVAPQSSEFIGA
Procedure: as §1, §2

T1 sequence (P00533 668-1210): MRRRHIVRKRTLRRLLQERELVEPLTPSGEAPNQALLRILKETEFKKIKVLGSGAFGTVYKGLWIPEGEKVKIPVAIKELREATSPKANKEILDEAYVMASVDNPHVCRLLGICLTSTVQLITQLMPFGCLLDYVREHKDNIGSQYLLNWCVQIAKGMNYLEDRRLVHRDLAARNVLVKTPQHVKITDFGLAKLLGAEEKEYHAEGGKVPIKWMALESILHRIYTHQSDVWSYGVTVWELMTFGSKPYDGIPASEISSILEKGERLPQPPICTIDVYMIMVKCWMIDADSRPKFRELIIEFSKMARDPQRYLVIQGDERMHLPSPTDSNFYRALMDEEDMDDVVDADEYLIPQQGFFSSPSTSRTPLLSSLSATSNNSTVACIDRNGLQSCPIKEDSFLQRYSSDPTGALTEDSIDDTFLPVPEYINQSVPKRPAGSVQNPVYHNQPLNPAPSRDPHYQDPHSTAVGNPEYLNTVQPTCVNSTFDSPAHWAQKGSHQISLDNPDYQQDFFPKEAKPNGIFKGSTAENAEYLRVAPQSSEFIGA

| pIC50 [1] | pIC50 [2] | pIC50 [3] | SMILES |
| --- | --- | --- | --- |
| 6.64 | 8.92 | 8.82 | CN1CCN(C2CCN(c3ccc(Nc4nc(Nc5cccc6c5N(S(C)(=O)=O)CC6)c5cc[nH]c5n4)c4c3OCO4)CC2)CC1 [Example 182, N2-(7-(4-(4-methylpiperazin-1-yl)piperidin-1-yl)benzo[d][1,3]dioxol-4-yl)-N4-(1-(methylsulfonyl)indolin-7-yl)-7H-pyrrolo[2,3-d]pyrimidine-2,4-diamine] |
| 8.15 | 9.05 | 9.70 | CN1CCN(C2CCN(c3ccc(Nc4ncc(Br)c(Nc5cccc6c5N(S(C)(=O)=O)CC6)n4)c4c3OCCO4)CC2)CC1 [Example 193, 5-bromo-N2-(8-(4-(4-methylpiperazin-1-yl)piperidin-1-yl)-2,3-dihydrobenzo[b][1,4]dioxin-5-yl)-N4-(1-(methylsulfonyl)indolin-7-yl)pyrimidine-2,4-diamine] |
| 9.15 | 10.00 | 9.70 | COc1cc(N2CCC(N3CCN(C)C4(CC4)C3)CC2)ccc1Nc1ncc(Br)c(Nc2cccc3c2N(S(C)(=O)=O)CC3)n1 [Example 192, 5-bromo-N2-(2-methoxy-4-(4-(4-methyl-4,7-diazaspiro[2.5]octan-7-yl)piperidin-1-yl)phenyl)-N4-(1-(methylsulfonyl)indolin-7-yl)pyrimidine-2,4-diamine] |
| 7.50 | 9.22 | 8.72 | COc1cc(N2CCC(N3CCN(C)CC3=O)CC2)ccc1Nc1nc(Nc2cccc3c2N(S(C)(=O)=O)CC3)c2cc[nH]c2n1 [Example 191, 1-(1-(3-methoxy-4-((4-((1-(methylsulfonyl)indolin-7-yl)amino)-7H-pyrrolo[2,3-d]pyrimidin-2-yl)amino)phenyl)piperidin-4-yl)-4-methylpiperazin-2-one] |
| 6.05 | 8.42 | 8.25 | COc1cc(N2CCC(N3CCN(C)CC3)CC2)ncc1Nc1nc(Nc2cccc3c2N(S(C)(=O)=O)CC3)c2cc[nH]c2n1 [Example 190, N2-(4-methoxy-6-(4-(4-methylpiperazin-1-yl)piperidin-1-yl)pyridin-3-yl)-N4-(1-(methylsulfonyl)indolin-7-yl)-7H-pyrrolo[2,3-d]pyrimidine-2,4-diamine] |
| 6.86 | 8.82 | 8.31 | COc1cc(N2CCC(N3CCN(C)C(=O)C3)CC2)ccc1Nc1nc(Nc2cccc3c2N(S(C)(=O)=O)CC3)c2cc[nH]c2n1 [Example 186, 4-(1-(3-methoxy-4-((4-((1-(methylsulfonyl)indolin-7-yl)amino)-7H-pyrrolo[2,3-d]pyrimidin-2-yl)amino)phenyl)piperidin-4-yl)-1-methylpiperazin-2-one] |
| 9.10 | 9.52 | 9.52 | COc1cc(N2CCC(N3CCN(C)CC3)CC2)ccc1Nc1ncc(Cl)c(Nc2cccc3c2N(S(C)(=O)=O)CC32CC2)n1 [Example 187, 5-chloro-N2-(2-methoxy-4-(4-(4-methylpiperazin-1-yl)piperidin-1-yl)phenyl)-N4-(1′-(methylsulfonyl)spiro[cyclopropane-1,3′-indolin]-7′-yl)pyrimidine-2,4-diamine] |

Continued, compound first:

| SMILES | pIC50 [1] | pIC50 [2] | pIC50 [3] |
| --- | --- | --- | --- |
| COc1cc(N2CCC3(CC2)CN(C)C3)c(C)cc1Nc1ncc(Br)c(Nc2cccc3c2N(S(C)(=O)=O)CC3)n1 [Example 45, 5-bromo-N^2-(2-methoxy-5-methyl-4-(2-methyl-2,7-diazaspiro[3.5]nonan-7-yl)phenyl)-N^4-(1-(methylsulfonyl)indolin-7-yl)pyrimidine-2,4-diamine] | 9.00 | 9.70 | 9.52 |
| COc1cc(N2C[C@@H]3C[C@H]2CN3C)ccc1Nc1nc(Nc2cccc3c2N(S(C)(=O)=O)CC3)c2cc[nH]c2n1 [Example 110, N^2-(2-methoxy-4-((1S,4S)-5-methyl-2,5-diazabicyclo[2.2.1]heptan-2-yl)phenyl)-N^4-(1-(methylsulfonyl)indolin-7-yl)-7H-pyrrolo[2,3-d]pyrimidine-2,4-diamine] | 6.24 | 8.29 | 7.97 |
| COc1cc(Nc2nc(Nc3cccc4c3N(S(C)(=O)=O)CC4)c3cc[nH]c3n2)c(F)cc1N1CCC(N2CCN(C)CC2)CC1 [Example 149, N2-(2-fluoro-5-methoxy-4-(4-(4-methylpiperazin-1-yl)piperidin-1-yl)phenyl)-N4-(1-(methylsulfonyl)indolin-7-yl)-7H-pyrrolo[2,3-d]pyrimidine-2,4-diamine] | 7.66 | 9.40 | 9.40 |
| COc1cc(N(C)CCN(C)C)ccc1Nc1nc(Nc2cccc3c2N(S(C)(=O)=O)CC3)c2cc[nH]c2n1 [Example 112, N^2-(4-((2-(dimethylamino)ethyl)(methyl)amino)-2-methoxyphenyl)-N^4-(1-(methylsulfonyl)indolin-7-yl)-7H-pyrrolo[2,3-d]pyrimidine-2,4-diamine] | 6.08 | 8.54 | 7.84 |
| CN(C)C1CCN(c2ccc(Nc3ncc(Br)c(Nc4cccc5c4N(S(C)(=O)=O)CC5)n3)c3c2CCC3)CC1 [Example 53, 5-bromo-N^2-(7-(4-(dimethylamino)piperidin-1-yl)-2,3-dihydro-1H-inden-4-yl)-N^4-(1-(methylsulfonyl)indolin-7-yl)pyrimidine-2,4-diamine] | 8.19 | 9.49 | 9.55 |
| COc1cc(N2CCC(N(C)C)CC2)c(C)cc1Nc1ncc(Br)c(Nc2cccc3c2N(S(C)(=O)=O)CC3)n1 [Example 46, 5-bromo-N^2-(4-(4-(dimethylamino)piperidin-1-yl)-2-methoxy-5-methylphenyl)-N^4-(1-(methylsulfonyl)indolin-7-yl)pyrimidine-2,4-diamine] | 9.05 | 10.00 | 9.70 |
| COc1cc(-c2cnn(CCN(C)C)c2)ccc1Nc1nc(Nc2cccc3c2N(S(C)(=O)=O)CC3)c2cc[nH]c2n1 [Example 113, N^2-(4-(1-(2-(dimethylamino)ethyl)-1H-pyrazol-4-yl)-2-methoxyphenyl)-N^4-(1-(methylsulfonyl)indolin-7-yl)-7H-pyrrolo[2,3-d]pyrimidine-2,4-diamine] | 5.83 | 7.80 | 7.73 |
| COc1cc(N2CCC(N3CCN(C)CC3)CC2)ccc1Nc1ncc(Br)c(Nc2cccc3c2N(S(C)(=O)=O)CC32CC2)n1 [Example 28, 5-bromo-N^2-(2-methoxy-4-(4-(4-methylpiperazin-1-yl)piperidin-1-yl)phenyl)-N^4-(1′-(methylsulfonyl)spiro[cyclopropane-1,3′-indolin]-7′-yl)pyrimidine-2,4-diamine] | 9.05 | 9.36 | 9.41 |
| CN1CCN(c2ccc(Nc3ncc(Br)c(Nc4cccc5c4N(S(C)(=O)=O)CC5)n3)c3c2CC(C)(C)O3)CC1 [Example 56, 5-bromo-N^2-(2,2-dimethyl-4-(4-methylpiperazin-1-yl)-2,3-dihydrobenzofuran-7-yl)-N^4-(1-(methylsulfonyl)indolin-7-yl)pyrimidine-2,4-diamine] | 6.62 | 7.63 | 7.97 |
| CC1Cc2c(N3CCC(N4CCN(C)CC4)CC3)ccc(Nc3ncc(Br)c(Nc4cccc5c4N(S(C)(=O)=O)CC5)n3)c2O1 (stereo not drawn) [Example 61, 5-bromo-N^2-(2-methyl-4-(4-(4-methylpiperazin-1-yl)piperidin-1-yl)-2,3-dihydrobenzofuran-7-yl)-N^4-(1-(methylsulfonyl)indolin-7-yl)pyrimidine-2,4-diamine] | 7.82 | 8.82 | 8.80 |
| Cc1cc(Nc2nc(Nc3cccc4c3N(S(C)(=O)=O)CC4)c3cc[nH]c3n2)ccc1N1CCC(N2CCN(C)CC2)CC1 [Example 82, N^2-(3-methyl-4-(4-(4-methylpiperazin-1-yl)piperidin-1-yl)phenyl)-N^4-(1-(methylsulfonyl)indolin-7-yl)-7H-pyrrolo[2,3-d]pyrimidine-2,4-diamine] | 7.40 | 9.15 | 9.07 |
| CN1CCN(c2c(F)cc(Nc3ncc(Br)c(Nc4cccc5c4N(S(C)(=O)=O)CC5)n3)c3c2CCO3)CC1 [Example 58, 5-bromo-N^2-(5-fluoro-4-(4-methylpiperazin-1-yl)-2,3-dihydrobenzofuran-7-yl)-N^4-(1-(methylsulfonyl)indolin-7-yl)pyrimidine-2,4-diamine] | 7.99 | 8.77 | 8.80 |
